Results as given in patent US6399777B2, “Inclusion complexes of aryl-heterocyclic salts” (Pfizer Inc., priority 1996, dated 2002).
Structures can show the parent of a compound that is named as a salt.

assay: Equilibrium solubility of ziprasidone salts in 40% (w/v) aqueous HPBCD, HPLC; format: physicochemical; settings: 40% (w/v) HPBCD in water, stirred four days at ambient temperature; calculated as free base
Source text: Many different experimental protocols can be envisioned and implemented. […] HPBCD was purchased commercially from Wacker Chemie.

Compound | Solubility in 40% HPBCD [μgA/ml]
O=C1Cc2cc(CCN3CCN(c4nsc5ccccc45)CC3)c(Cl)cc2N1 [aspartate, ziprasidone] | 1.3
O=C1Cc2cc(CCN3CCN(c4nsc5ccccc45)CC3)c(Cl)cc2N1 [esylate, Ziprasidone Esylate] | 13.7
O=C1Cc2cc(CCN3CCN(c4nsc5ccccc45)CC3)c(Cl)cc2N1 [hydrochloride, ziprasidone] | 2.4
O=C1Cc2cc(CCN3CCN(c4nsc5ccccc45)CC3)c(Cl)cc2N1 [mesylate, Ziprasidone Mesylate] | 17.3
O=C1Cc2cc(CCN3CCN(c4nsc5ccccc45)CC3)c(Cl)cc2N1 [tartrate, Ziprasidone Tartrate] | 12.4

assay: Solubility of ziprasidone salts in water; settings: weight of ziprasidone calculated as the free base

Compound | Solubility in water [μgA/ml]
O=C1Cc2cc(CCN3CCN(c4nsc5ccccc45)CC3)c(Cl)cc2N1 [besylate, ziprasidone] | 80
O=C1Cc2cc(CCN3CCN(c4nsc5ccccc45)CC3)c(Cl)cc2N1 [free base, ziprasidone, reference compound] | 0.3
O=C1Cc2cc(CCN3CCN(c4nsc5ccccc45)CC3)c(Cl)cc2N1 [hydrochloride, ziprasidone] | 80
O=C1Cc2cc(CCN3CCN(c4nsc5ccccc45)CC3)c(Cl)cc2N1 [mesylate, Ziprasidone Mesylate] | 1000
O=C1Cc2cc(CCN3CCN(c4nsc5ccccc45)CC3)c(Cl)cc2N1 [tartrate, Ziprasidone Tartrate] | 180

assay: Equilibrium solubility of ziprasidone salts in 40% (w/v) aqueous SBECD, HPLC; settings: in 40% SBECD; from Table 1
Protocol: The following protocol illustrates the protocol employed for the instant invention using 40% aqueous cyclodextrin. The same protocol was employed for other aqueous cyclodextrin concentrations such as those used to generate FIG. 1.
A 40% (w/v) solution of cyclodextrin (SBECD or HPBCD) in water was prepared by adding 200 g of cyclodextrin to a 500 ml beaker containing approximately 250 ml of deionized water and a magnetic stir bar. The contents were stirred until dissolution of the cyclodextrin in the water was complete, usually a time of about one hour being sufficient. The solution was then transferred to a 500 ml volumetric flask and deionized water was added to the mark. 5 ml of the volumetric solution was pipetted into a 10 ml glass vial with a screw cap. […] The vial contents were stirred for four days at ambient temperature to allow a sufficient time for equilibrium to be established. […] The contents were filtered into a clean screw cap vial through a Millex-GS 0.2 μm filter and the drug concentration determined by an HPLC method.
Detection can be by UV absorption at a wavelength of 229 nm. Quantification can be effected facilely by comparison of HPLC peak height (or area) with the peak height (or area) taken from a standard plot of concentration vs. peak height (or area) for standards of known concentration. […]

Compound | Comparison of solubility among the salt candidates and cyclodextrin solutions tested
O=C1Cc2cc(CCN3CCN(c4nsc5ccccc45)CC3)c(Cl)cc2N1 [mesylate, Ziprasidone Mesylate] | highest solubility
